Measured values from PubChem BioAssay AID248 (DTP/NCI, 2004).
Several values for one entry are separate records, joined by “and”; a condition that tells them apart may be missing. Identical values can stand only once. Inconclusive results and toxic doses are left out. Cut-off read from the data, not from the text of the source: active = T/C of 150% or more; inactive = T/C below 125%.

System: L1210 leukemia ip in BDF1 mice, survival T/C
Assay: NCI In Vivo Anticancer Drug Screen. Data for tumor model L1210 Leukemia (intraperitoneal) in B6D2F1 (BDF1) mice
Conditions: endpoint: mean survival time, higher = longer survival
How it was run: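 Survival endpoint. Drug-treated group vs vehicle group, expressed as T divided by C. Tumor passaged by transplantation.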

[1] = dose: 100.0 mg/kg/injection, schedule: Q01DX001 (ip), vehicle: saline
[2] = dose: 200.0 mg/kg/injection, schedule: Q01DX001 (ip), vehicle: saline
[3] = dose: 400.0 mg/kg/injection, schedule: Q01DX001 (ip), vehicle: saline
[4] = dose: 50.0 mg/kg/injection, schedule: Q01DX001 (ip), vehicle: carboxymethylcellulose (CMC)
[5] = dose: 50.0 mg/kg/injection, schedule: Q04DX003 (ip), vehicle: saline
[6] = dose: 100.0 mg/kg/injection, schedule: Q04DX003 (ip), vehicle: saline
[7] = dose: 100.0 mg/kg/injection, schedule: Q04DX002 (ip), vehicle: Klucel (hydroxypropylcellulose) (HPC)
[8] = dose: 200.0 mg/kg/injection, schedule: Q04DX002 (ip), vehicle: Klucel (hydroxypropylcellulose) (HPC)
[9] = dose: 400.0 mg/kg/injection, schedule: Q04DX002 (ip), vehicle: Klucel (hydroxypropylcellulose) (HPC)
[10] = dose: 100.0 mg/kg/injection, schedule: Q01DX009 (ip), vehicle: saline with Tween-80
[11] = dose: 100.0 mg/kg/injection, schedule: Q04DX003 (ip), vehicle: saline with Tween-80
[12] = dose: 100.0 mg/kg/injection, schedule: Q01DX001 (ip), vehicle: saline with Tween-80
[13] = dose: 200.0 mg/kg/injection, schedule: Q01DX001 (ip), vehicle: saline with Tween-80

Measured: T/C

CC(OC(=O)c1ccccc1)C(N)=S (stereo not given)
inactive: [1] 102 % of control | dose: 100.0 mg/kg/injection, schedule: Q01DX009 (ip), vehicle: acetone 93 % of control | dose: 100.0 mg/kg/injection, schedule: Q04DX003 (ip), vehicle: acetone 101 % of control | [2] 93 % of control | dose: 200.0 mg/kg/injection, schedule: Q01DX009 (ip), vehicle: acetone 95 % of control | dose: 200.0 mg/kg/injection, schedule: Q04DX003 (ip), vehicle: acetone 102 % of control | [3] 103 % of control | dose: 400.0 mg/kg/injection, schedule: Q01DX009 (ip), vehicle: acetone 96 % of control | dose: 400.0 mg/kg/injection, schedule: Q04DX003 (ip), vehicle: acetone 102 % of control

CN(C)c1ccc2c(c1)oc(=O)c1ccccc12
inactive: [4] 93 % of control | dose: 100.0 mg/kg/injection, schedule: Q01DX001 (ip), vehicle: carboxymethylcellulose (CMC) 104 % of control | dose: 200.0 mg/kg/injection, schedule: Q01DX001 (ip), vehicle: carboxymethylcellulose (CMC) 112 % of control | dose: 400.0 mg/kg/injection, schedule: Q01DX001 (ip), vehicle: carboxymethylcellulose (CMC) 91 % of control

CC(C)N=Cc1cc(Cl)ccc1O.CC(C)N=Cc1cc(Cl)ccc1O.[Co]
inactive: [5] 94 % of control | [6] 102 % of control | dose: 200.0 mg/kg/injection, schedule: Q04DX003 (ip), vehicle: saline 105 % of control

CCCCCCP(=S)(CCCC)CCCCCC
inactive: [7] 102 % of control | [8] 102 % of control | [9] 102 % of control

Nc1nnnn1-c1ccccc1
inactive: [7] 102 % of control | [8] 102 % of control | [9] 91 % of control

Cc1n[nH]c(=S)nc1C
inactive: dose: 50.0 mg/kg/injection, schedule: Q01DX001 (ip), vehicle: saline 96 % of control | dose: 50.0 mg/kg/injection, schedule: Q04DX003 (ip), vehicle: Klucel (hydroxypropylcellulose) (HPC) 96 % of control | [1] 102 % of control | dose: 100.0 mg/kg/injection, schedule: Q04DX003 (ip), vehicle: Klucel (hydroxypropylcellulose) (HPC) 96 % of control | [2] 93 % of control | dose: 200.0 mg/kg/injection, schedule: Q04DX003 (ip), vehicle: Klucel (hydroxypropylcellulose) (HPC) 91 % of control

CCN(C(C)C)C(C)C
inactive: dose: 25.0 mg/kg/injection, schedule: Q01DX009 (ip), vehicle: saline with Tween-80 101 % of control | dose: 50.0 mg/kg/injection, schedule: Q01DX009 (ip), vehicle: saline with Tween-80 106 % of control | [10] 96 % of control | [11] 93 % of control

COc1ccccc1N=Nc1c(O)n(-c2ccccc2C)c(=S)n(-c2ccc(C)cc2)c1=O
inactive: dose: 100.0 mg/kg/injection, schedule: Q01DX001 (ip), vehicle: Klucel (hydroxypropylcellulose) (HPC) 101 % of control | dose: 200.0 mg/kg/injection, schedule: Q01DX001 (ip), vehicle: Klucel (hydroxypropylcellulose) (HPC) 93 % of control

CCOC(=O)C(=Cc1c[nH]c2ccc(Br)cc12)C(=O)OCC
inactive: [10] 98 % of control | [11] 89 % of control | dose: 200.0 mg/kg/injection, schedule: Q01DX009 (ip), vehicle: saline with Tween-80 104 % of control | dose: 200.0 mg/kg/injection, schedule: Q04DX003 (ip), vehicle: saline with Tween-80 96 % of control | dose: 400.0 mg/kg/injection, schedule: Q01DX009 (ip), vehicle: saline with Tween-80 101 % of control | dose: 400.0 mg/kg/injection, schedule: Q04DX003 (ip), vehicle: saline with Tween-80 91 % of control

CCCCCCCCCCCCCCNCCC(=O)O
inactive: dose: 37.5 mg/kg/injection, schedule: Q04DX003 (ip), vehicle: saline 102 % of control | dose: 75.0 mg/kg/injection, schedule: Q04DX003 (ip), vehicle: saline 101 % of control | dose: 150.0 mg/kg/injection, schedule: Q04DX003 (ip), vehicle: saline 102 % of control

CCCCCC[Se]CCCCCC
inactive: dose: 12.5 mg/kg/injection, schedule: Q01DX009 (ip), vehicle: saline 98 % of control | dose: 25.0 mg/kg/injection, schedule: Q01DX009 (ip), vehicle: saline 96 % of control | dose: 25.0 mg/kg/injection, schedule: Q04DX003 (ip), vehicle: saline 101 % of control | dose: 50.0 mg/kg/injection, schedule: Q01DX009 (ip), vehicle: saline 93 % of control and 102 % of control | [5] 97 % of control | [6] 98 % of control and 100 % of control

O=C(C[n+]1ccccc1CO)c1ccc(-c2ccc(C(=O)C[n+]3ccccc3CO)cc2)cc1
inactive: dose: 0.15 mg/kg/injection, schedule: Q04DX003 (ip), vehicle: saline 97 % of control | dose: 0.3 mg/kg/injection, schedule: Q04DX003 (ip), vehicle: saline 96 % of control | dose: 0.6 mg/kg/injection, schedule: Q04DX003 (ip), vehicle: saline 100 % of control

CCOC(=O)C(C)(C)Oc1ccc(O)cc1
inactive: [12] 105 % of control | [13] 105 % of control | dose: 400.0 mg/kg/injection, schedule: Q01DX001 (ip), vehicle: saline with Tween-80 97 % of control

c1ccc([Se+](c2ccccc2)c2ccccc2)cc1
inactive: dose: 0.22 mg/kg/injection, schedule: Q01DX009 (ip), vehicle: Klucel (hydroxypropylcellulose) (HPC) 98 % of control | dose: 0.39 mg/kg/injection, schedule: Q01DX009 (ip), vehicle: saline 94 % of control | dose: 0.45 mg/kg/injection, schedule: Q01DX009 (ip), vehicle: Klucel (hydroxypropylcellulose) (HPC) 110 % of control | dose: 0.78 mg/kg/injection, schedule: Q01DX009 (ip), vehicle: saline 97 % of control | dose: 1.56 mg/kg/injection, schedule: Q01DX009 (ip), vehicle: saline 87 % of control

CCOc1ccc(/C=N/Nc2nnc(N/N=C/c3ccc(OCC)c(OCC)c3)c3ccccc23)cc1OCC
inactive: [4] 95 % of control

Cc1ccc(S(=O)(=O)Nc2ccc3ncccc3c2)cc1
inactive: [1] 103 % of control | [2] 102 % of control | [3] 96 % of control

Cc1ccc(S(=O)(=O)Oc2cc([N+](=O)[O-])ccc2N)cc1
inactive: dose: 100.0 mg/kg/injection, schedule: Q01DX009 (ip), vehicle: saline 103 % of control | dose: 200.0 mg/kg/injection, schedule: Q01DX009 (ip), vehicle: saline 105 % of control | dose: 400.0 mg/kg/injection, schedule: Q01DX009 (ip), vehicle: saline 100 % of control

CN(C)c1ncnc2c1ncn2C1OC(CO)C(N(C)C)C1O (stereo not given)
inactive: dose: 100.0 mg/kg/injection, schedule: Q01DX005 (ip), vehicle: saline 103 % of control | dose: 200.0 mg/kg/injection, schedule: Q01DX005 (ip), vehicle: saline 95 % of control

Cc1ccc(C)c(N2C(=O)C(=O)N(c3cc(C)ccc3C)P2(=O)N(CCCl)CCCl)c1
inactive: dose: 18.0 mg/kg/injection, schedule: Q01DX Z (ip), vehicle: carboxymethylcellulose (CMC) 101 % of control | dose: 36.0 mg/kg/injection, schedule: Q01DX Z (ip), vehicle: carboxymethylcellulose (CMC) 90 % of control | dose: 72.0 mg/kg/injection, schedule: Q01DX Z (ip), vehicle: carboxymethylcellulose (CMC) 93 % of control | dose: 145.0 mg/kg/injection, schedule: Q01DX Z (ip), vehicle: carboxymethylcellulose (CMC) 96 % of control

CN(C)CCNc1cc([N+](=O)[O-])ccc1[N+](=O)[O-]
inactive: [1] 105 % of control

CCCC(=O)OC(OC(=O)CCC)c1cccc(OC(=O)CC)c1
inactive: dose: 222.0 mg/kg/injection, schedule: Q01DX Z (ip), vehicle: methylcellulose (MC) 96 % of control | dose: 333.0 mg/kg/injection, schedule: Q01DX Z (ip), vehicle: methylcellulose (MC) 104 % of control | dose: 500.0 mg/kg/injection, schedule: Q01DX Z (ip), vehicle: methylcellulose (MC) 105 % of control

COc1ccc2c(c1)sc(/C=C/c1ccc(O)c3ncccc13)[n+]2C
inactive: dose: 75.0 mg/kg/injection, schedule: Q01DX001 (ip), vehicle: saline 111 % of control | dose: 150.0 mg/kg/injection, schedule: Q01DX001 (ip), vehicle: saline 110 % of control | dose: 300.0 mg/kg/injection, schedule: Q01DX001 (ip), vehicle: saline 117 % of control

O=C(Nc1ccccc1)C(Cl)S(=O)(=O)O (stereo not given)
inactive: [12] 97 % of control | [13] 97 % of control

S=P(Oc1cc(Cl)c(Cl)cc1Cl)(N1CCN(c2ccccc2)CC1)N1CCN(c2ccccc2)CC1
inactive: [1] 90 % of control | [2] 90 % of control | [3] 88 % of control
